According to patent US20220202712A1, “SELF-EMULSIFYING DRUG DELIVERY SYSTEMS FOR DELIVERY OF LIPOPHILIC COMPOUNDS” (Yissum Research Development Company of the Hebrew …, priority 2019, published 2022):
Read-outs that look alike come from different tables or passages of the source.

Columns and labels:
[1] = Pharmacokinetic studies for CBD- and THC-loaded SEDDS based on tributyrin; settings: oral, 0.125 mg THC/2.5 mg CBD (CBD:THC 20:1)
Experimental: The PK studies were carried out on rats. Three animals were used in each time point. At each test point, animals were sacrificed and blood (5-6 ml) withdrawn from the heart and collected in heparinized tubes.
Each rat was orally administered with 1 mil of the test formulation. Blood samples were withdrawn at different time points: 0, 0.5, 1, 2, 4, 6, 10 and 24 hours. The blood samples were centrifuged at 4000 rpm and the plasma was separated and collected in clean polyethylene tubes and kept at −80° C. until analysis using LC-MS/MS.
TB1 liquid SEDDS formulations were tested: 200 parts tributyrin, 350 parts Cremophor RH40, 350 parts PEG400, 350 parts PG.
The HPLC system consisted of a Dionex/Thermo Scientific UltiMate 3000 UHPLC systems fitted with a 100 μL sample loop, Dionex™ UltiMate™ 3000 Rapid Separation Diode Array Detector, and integration software Chromeleon Chromatography Data System (CDS).
Chromatographic separation was performed with guard column Luna® 5 μm C18(2) 100 Å, LC Column 150×4.6 mm, using an isocratic mobile phase of water (0.1% formic acid): acetonitrile (0.1% formic acid) 10:90 at a flow rate of 1 mL/min for 10 in minisocratic condition. The column temperature was 40° C. and the injection volume was 100 μL.
Dual ion electrospray ionization (DUIS) in positive was used for ionization of the analytes on the ISQ™ EC. […]

[2] = sublingual drops, cited from earlier work

| Structure (SMILES) | Tmax ([1]; Table 20, THC, semi-solid SEDDS) | C1/F_obs ([1]; Table 21-2, THC in tributyrin as a carrier (reference)) | Cmax ([2]; CBD dose 10 mg) | Tmax ([2]; CBD dose 10 mg) | Cmax ([2]; CBD dose 20 mg) | Tmax ([2]; CBD dose 20 mg) |
| --- | --- | --- | --- | --- | --- | --- |
| CCCCCc1cc(O)c2c(c1)OC(C)(C)[C@@H]1CCC(C)=C[C@@H]21 [THC, tetrahydrocannabinol] | 2.00 h | 66.835 mL/min/kg | – | – | – | – |
| C=C(C)[C@@H]1CCC(C)=C[C@H]1c1c(O)cc(CCCCC)cc1O [CBD, cannabidiol] | – | – | 2.05 ng/mL | 2.17 h | 2.58 ng/mL | 1.67 h |
